{"source": "patent US20100266696A1", "about": "“Organic Compounds” (priority 2007, published 2010)", "key": {"[1]": {"test": "X-ray powder diffraction and DSC crystallinity", "assay_type": "physicochemical", "details": "final product after spray drying"}, "[2]": {"test": "Aggregation/agglomeration tendency: jet-milled vs high pressure homogenised and dried (Example 4)", "assay_type": "physicochemical", "from_the_text": "The mill is equipped with 3 nozzles of 1.9 mm diameter. […] As a consequence, the material has to be co-milled with a force control agent such as magnesium stearate in order to obtain a freely flowable non-agglomerating micronised drug substance."}, "[3]": {"test": "Scanning electron microscopy of glycopyrrolate materials (Example 1)", "assay_type": "physicochemical", "from_the_text": "(§1) The crystallites appear to break into fairly regular, rectangularly shaped fragments of smaller size in the early stages of homogenization, which are subsequently comminuted and smoothed further. Particle size decreases further at an increasing number of homogenization cycles, after 24 passes the average particle size is around 1 μm already, and the particle edges are noticeably more rounded than initially or after only 12 passes. No significant changes are observed in particles isolated after 24 and 48 passes through the homogeniser.\n(§2) Particles still appear as rectangularly shaped fragments with smoothed edges and an average size around or slightly above 1 μm. The specific surface area of the dried suspension (analysed by adsorption analysis, BET surface measurement) is determined to be 4.0 m^2/g."}, "[4]": {"details": "final product after spray drying; ultrasonication 60 W 480 s", "protocol": "The spray dryer is operated at an outlet temperature of around 75-78° C., i.e., above the boiling point of neat acetone, in order to avoid solvent condensation in the spray tower. The inlet temperature is set to 100° C., and the experiment initiated by spraying pure solvent. The spray rate is set to a flow of 5 mL/min using a Büchi lab scale spray dryer, with the aspirator operated at 100%. The nitrogen flow rate is kept constant at 600-700 l/h. At these operating conditions, the homogenised suspension is sprayed, and a dry powder is collected in a cyclone followed by a cloth filter.\nOnce again ultrasonication at 60 W is applied for 480 seconds to break any loose aggregates in the product prior to starting the particle size distribution measurement.\nThe final product after spray drying is re-characterized after 25 days of storage at ambient conditions as well as at 4° C."}, "[5]": {"test": "BET specific surface area (adsorption analysis)", "assay_type": "physicochemical", "protocol": "as §2\nThe specific surface area of the final product by BET analysis is determined to be 4.0 m2/g."}, "[6]": {"test": "Laser light diffraction particle size analysis of high pressure homogenised glycopyrrolate suspension (Example 1)", "assay_type": "physicochemical", "details": "suspension in acetone after homogenisation at 950 bar, 48 passes; ultrasonication 60 W 480 s", "protocol": "The suspension is then homogenised at a pressure drop of 950 bar, a reflux temperature of about 9-12.5° C., and a mixing/reflux vessel jacket temperature of 2° C. The piston pump stroke frequency is about 60, and the process is run for a total of 60 minutes, which is equivalent to a total of 48 passes or homogenisation cycles. Samples are also taken as in process control after 15 (12 passes) and 30 (24 passes) minutes, and analyzed along with the final product.\nas §1"}}, "data": [{"smiles": "C[N+]1(C)CCC(OC(=O)C(O)(c2ccccc2)C2CCCC2)C1.[Br-]", "note": "(stereo not shown) [glycopyrrolate, 3-[(cyclopentyl-hydroxyphenylacetyl)oxy]-1,1-dimethyl-pyrrolidinium bromide]", "values": [{"measurement": "crystallinity (XPRD and DSC) compared to coarse drug substance", "setting": "[1]", "result": "no change in crystallinity"}, {"measurement": "tendency to aggregate or agglomerate", "setting": "[2]; high pressure homogenised and subsequently dried material (Examples 1, 2 and 3)", "result": "no tendency to aggregate or agglomerate"}, {"measurement": "tendency to aggregate and agglomerate", "setting": "[2]; micronised in fluid bed opposed jet mill", "result": "high tendency to aggregate and agglomerate"}, {"measurement": "average particle size", "setting": "[3]; after 24 passes of homogenisation", "result": "around 1 μm"}, {"measurement": "average size by scanning electron microscopy", "setting": "[3]; after homogenisation step", "result": "below 5 μm"}, {"measurement": "average size by SEM", "setting": "[3]; spray dried glycopyrrolate", "result": "~1", "unit": "μm"}, {"measurement": "mean particle size, ×50", "setting": "[4]", "result": 1.7, "unit": "μm"}, {"measurement": "×90 value", "setting": "[4]", "result": 3.6, "unit": "μm"}, {"measurement": "specific surface area (BET)", "setting": "[5]; dried suspension", "result": 4.0, "unit": "m^2/g"}, {"measurement": "specific surface area by BET analysis", "setting": "[5]; final product", "result": 4.0, "unit": "m2/g"}, {"measurement": "×10 mean particle size", "setting": "[6]", "result": 0.6, "unit": "μm"}, {"measurement": "×50 mean particle size", "setting": "[6]", "result": 1.3, "unit": "μm"}, {"measurement": "×90 mean particle size", "setting": "[6]", "result": 3.1, "unit": "μm"}]}]}
